Literature values in patent US20030018074A1, “Antiviral composition and treatment method” (priority 2001, published 2003).
Read-outs that look alike come from different tables or passages of the source. Blank lines part the entries; values can stand above or below the molecule they belong to.

Assays:
HSV-2 = conditions: for EC50: HSV-2, Vero cells, surfactant suspension, read-out: effective concentration required to inhibit plaque formation by 50% (EC50)
HSV-2 virus = conditions: incubation of HSV-2 with the suspension for 2 hours
[1] = test system: HSV-1 dorsal cutaneous infection; conditions: 5% in a branch chain ester base; guinea pigs
[2] = test system: early viral protein synthesis

Compound: CCCCCCCC/C=C\CCCCCCCCCCCC(N)=O [erucamide, cis-13-docosenoamide]
percent inhibition of plaque formation (HSV-2; 0.03 mM): 34%
percent inhibition of plaque formation (HSV-2; 0.59 mM): 42%
percent inhibition of plaque formation (HSV-2; 0.89 mM): 44%
percent inhibition of plaque formation (HSV-2; 1.2 mM): 58%
percent inhibition of plaque formation (HSV-2; 1.5 mM): 68%

Compound: CCCCCCCC/C=C/CCCCCCCCCCCCO [brassidyl alcohol, trans-13-docosen-1-ol]
cellular toxicity (in words) (Vero cells; compared with erucyl alcohol): significantly less than that of erucyl alcohol

Compound: CCCCC/C=C\C/C=C\C/C=C\CCCCCO [γ-linolenyl alcohol]
inactivation of viruses, rank among C14 to C20 unsaturated alcohols (in words) (viruses): most effective

EC50 (HSV-2): 0.15 mM
EC50 lower than the concentration required for n-docosanol (HSV-2; ratio of EC50 n-docosanol to EC50 erucyl alcohol): 60 fold
Compound: CCCCCCCC/C=C\CCCCCCCCCCCCO [erucyl alcohol, cis-13-docosen-1-ol]
inhibition of HSV-2 plaque production (HSV-2; concentrations tolerable to the cells (≦1 mM)): ≤ 93%
direct virucidal effect (in words) (HSV-2 virus): did not have a direct virucidal effect
cellular toxicity (in words) (Vero cells; 1 mM): no cellular toxicity was observed
toxicity to Vero cells (in words) (Vero cells; added to cultures at 2-15 mM): toxic to Vero cells

Compound: CCCCCCCCCCCCCCCCCCCCCCCCCCCCCCO [triacontanol, 1-triacontanol]
efficacy for the treatment of HSV-1 dorsal cutaneous infection (in words) [1]: a certain amount of efficacy

Compound: CCCCCCCCCCCCCCCCCCCCCCO [n-docosanol]
EC50 (HSV-2): 9 mM
concentrations where effective (HSV-2; Vero cultures): 2 to 15 mM
inhibition of early viral protein synthesis [2]: more than 80%
